# Legend:
# Assay type in all cases: functional, cell-based
# HepG2 = test: Cytotoxicity against human HepG2 cells assessed as growth inhibition after 72 hrs by MTT assay; details: HepG2, 72 h
# HCT-116 = test: Cytotoxicity against human HCT116 cells assessed as growth inhibition after 72 hrs by MTT assay; details: HCT-116, 72 h
# A549 = test: Cytotoxicity against human A549 cells assessed as growth inhibition after 72 hrs by MTT assay; details: A549, 72 h
# A2780 = test: Cytotoxicity against human A2780 cells assessed as growth inhibition after 72 hrs by MTT assay; details: A2780, 72 h
# BGC-823 = test: Cytotoxicity against human BGC823 cells assessed as growth inhibition after 72 hrs by MTT assay; details: BGC-823, 72 h
smiles,measurement,setting,value
O=C1/C(=C\c2ccccc2)c2c(ncn2COCc2ccccc2)CCN1Cc1ccc(Cl)cc1,IC50,HepG2,47.9 µM
same,IC50,HCT-116,10.5 µM
same,IC50,A549,11.8 µM
same,IC50,A2780,22.2 µM
same,IC50,BGC-823,75.7 µM
O=C1/C(=C\c2ccccc2)c2c(ncn2COCc2ccccc2)CCN1Cc1ccccc1,IC50,HepG2,13.9 µM
same,IC50,HCT-116,20 µM
same,IC50,A549,9.9 µM
same,IC50,A2780,20.4 µM
same,IC50,BGC-823,20.4 µM
O=C1/C(=C\c2ccccc2)c2c(ncn2COCc2ccccc2)CCN1Cc1ccc2ccccc2c1,IC50,HepG2,23.7 µM
same,IC50,HCT-116,19.4 µM
same,IC50,A549,26.4 µM
same,IC50,A2780,72.8 µM
same,IC50,BGC-823,93.3 µM
Cc1ccccc1CN1CCc2ncn(COCc3ccccc3)c2/C(=C/c2ccccc2)C1=O,IC50,HepG2,53.3 µM
same,IC50,HCT-116,24.7 µM
same,IC50,A549,25.6 µM
same,IC50,A2780,25.2 µM
same,IC50,BGC-823,31.3 µM
COc1cc(/C=C2\C(=O)N(Cc3ccccc3)CCc3ncn(COCc4ccccc4)c32)cc(OC)c1OC,IC50,HepG2,10 µM
same,IC50,HCT-116,8.9 µM
same,IC50,A549,8.56 µM
same,IC50,A2780,8.97 µM
same,IC50,BGC-823,12.9 µM
O=C1/C(=C\c2ccncc2)c2c(ncn2COCc2ccccc2)CCN1Cc1ccccc1,IC50,HepG2,> 100 µM
same,IC50,HCT-116,67.1 µM
same,IC50,A549,36 µM
same,IC50,A2780,> 100 µM
same,IC50,BGC-823,> 100 µM
CC(C)(C)c1ccc(CN2CCc3ncn(COCc4ccccc4)c3/C(=C/c3ccccc3)C2=O)cc1,IC50,HepG2,18 µM
same,IC50,HCT-116,8.46 µM
same,IC50,A549,20.6 µM
same,IC50,A2780,23.9 µM
same,IC50,BGC-823,27.8 µM
O=C1/C(=C\c2ccccc2)c2c(ncn2COCc2ccccc2)CCN1Cc1ccc(F)cc1,IC50,HepG2,39.4 µM
same,IC50,HCT-116,11.2 µM
same,IC50,A549,19.6 µM
same,IC50,A2780,24.8 µM
same,IC50,BGC-823,72.9 µM
O=C1/C(=C\c2ccccc2)c2c(ncn2COCc2ccccc2)CCN1Cc1ccc(-c2ccccc2)cc1,IC50,HepG2,72.5 µM
same,IC50,HCT-116,14 µM
same,IC50,A549,18.3 µM
same,IC50,A2780,48.3 µM
same,IC50,BGC-823,81 µM
Cc1cc(C)cc(CN2CCc3ncn(COCc4ccccc4)c3/C(=C/c3ccccc3)C2=O)c1,IC50,HepG2,40.9 µM
same,IC50,HCT-116,6.23 µM
same,IC50,A549,22.5 µM
same,IC50,A2780,31.3 µM
same,IC50,BGC-823,52.6 µM
O=C1/C(=C\c2ccccc2)c2[nH]cnc2CCN1Cc1ccccc1,IC50,HepG2,> 100 µM
same,IC50,HCT-116,> 100 µM
same,IC50,A549,51.1 µM
same,IC50,A2780,> 100 µM
same,IC50,BGC-823,> 100 µM
CNc1nc2ccn(C)c(=O)c(Cc3cc(Br)c(OC)c(Br)c3)c-2n1 [CERATAMINE A],IC50,HepG2,7.8 µM
same,IC50,HCT-116,12.4 µM
same,IC50,A549,26.8 µM
same,IC50,A2780,11.2 µM
same,IC50,BGC-823,20 µM
Cc1cccc(CN2CCc3ncn(COCc4ccccc4)c3/C(=C/c3ccccc3)C2=O)c1,IC50,HepG2,34.3 µM
same,IC50,HCT-116,3.8 µM
same,IC50,A549,16.1 µM
same,IC50,A2780,26.3 µM
same,IC50,BGC-823,14.6 µM
COc1ccc(CN2CCc3ncn(COCc4ccccc4)c3/C(=C/c3ccccc3)C2=O)cc1,IC50,HepG2,44.4 µM
same,IC50,HCT-116,31.1 µM
same,IC50,A549,46.8 µM
same,IC50,A2780,43.1 µM
same,IC50,BGC-823,71.6 µM
Cc1ccc(CN2CCc3ncn(COCc4ccccc4)c3/C(=C/c3ccccc3)C2=O)cc1,IC50,HepG2,44.6 µM
same,IC50,HCT-116,7.94 µM
same,IC50,A549,11.4 µM
same,IC50,A2780,21.2 µM
same,IC50,BGC-823,39.1 µM
O=C1/C(=C\c2ccc(C(F)(F)F)cc2)c2c(ncn2COCc2ccccc2)CCN1Cc1ccccc1,IC50,HepG2,51.4 µM
same,IC50,HCT-116,36 µM
same,IC50,A549,52.5 µM
same,IC50,A2780,28.2 µM
same,IC50,BGC-823,42.6 µM

# — ChEMBL document CHEMBL4184278, “Synthesis and cytotoxicity of novel imidazo[4,5-d]azepine compounds derived from marine natural product ceratamine A” (Bioorg Med Chem Lett, 2018)
